Reference: PubChem BioAssay (NCI)
Values joined by “and” are separate entries in the source; they are usually repeats but may differ in a detail not shown here. Identical values can stand only once.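 48-hour exposure; five concentrations; linearly interpolated endpoints. At the GI50, growth is halved. TGI: total growth inhibition.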

Legend:
Test in all cases: inhibition of tumour cell growth, NCI panel, 48 h
PC-3 prostate = system: PC-3 prostate
HCT-116 colon = system: HCT-116 colon
NCI-H226 lung = system: NCI-H226 lung
CCRF-CEM leukemia = system: CCRF-CEM leukemia
KM12 colon = system: KM12 colon
RXF-631 renal = system: RXF-631 renal
XF 498 CNS = system: XF 498 CNS
MDA-MB-231 breast = system: MDA-MB-231 breast
CAKI-1 renal = system: CAKI-1 renal
NCI/ADR-RES ovarian = system: NCI/ADR-RES ovarian
A549 NSCLC = system: A549 NSCLC
SK-MEL-5 melanoma = system: SK-MEL-5 melanoma
RPMI-8226 leukemia = system: RPMI-8226 leukemia
HCT-15 colon = system: HCT-15 colon
SW-620 colon = system: SW-620 colon
DLD-1 colon = system: DLD-1 colon
OVCAR-3 ovarian = system: OVCAR-3 ovarian
NCI-H460 lung = system: NCI-H460 lung
HT29 colon = system: HT29 colon
K-562 leukemia = system: K-562 leukemia
BT-549 breast = system: BT-549 breast
SNB-75 CNS = system: SNB-75 CNS
NCI-H522 lung = system: NCI-H522 lung
DU-145 prostate = system: DU-145 prostate
MCF7 breast = system: MCF7 breast
MDA-N = system: MDA-N
UACC-62 melanoma = system: UACC-62 melanoma
SF-268 CNS = system: SF-268 CNS
UO-31 renal = system: UO-31 renal
NCI-H23 lung = system: NCI-H23 lung
COLO 205 colon = system: COLO 205 colon
IGROV1 ovarian = system: IGROV1 ovarian
LXFL 529 NSCLC = system: LXFL 529 NSCLC
MOLT-4 leukemia = system: MOLT-4 leukemia
A498 renal = system: A498 renal
SN12C renal = system: SN12C renal
786-0 renal = system: 786-0 renal
LOX IMVI melanoma = system: LOX IMVI melanoma
MALME-3M melanoma = system: MALME-3M melanoma
U251 CNS = system: U251 CNS
M19-MEL melanoma = system: M19-MEL melanoma
T-47D breast = system: T-47D breast
OVCAR-5 ovarian = system: OVCAR-5 ovarian
SR leukemia = system: SR leukemia
ACHN renal = system: ACHN renal
M14 melanoma = system: M14 melanoma
OVCAR-4 ovarian = system: OVCAR-4 ovarian
SK-OV-3 ovarian = system: SK-OV-3 ovarian
HL-60(TB) leukemia = system: HL-60(TB) leukemia
HOP-62 NSCLC = system: HOP-62 NSCLC
TK-10 renal = system: TK-10 renal
RXF 393 renal = system: RXF 393 renal
HS 578T breast = system: HS 578T breast
HOP-18 NSCLC = system: HOP-18 NSCLC
DMS 114 small cell lung = system: DMS 114 small cell lung
SF-295 CNS = system: SF-295 CNS
HOP-92 NSCLC = system: HOP-92 NSCLC
EKVX NSCLC = system: EKVX NSCLC
SNB-19 CNS = system: SNB-19 CNS
OVCAR-8 ovarian = system: OVCAR-8 ovarian
SK-MEL-2 melanoma = system: SK-MEL-2 melanoma
DMS 273 small cell lung = system: DMS 273 small cell lung
KM20L2 colon = system: KM20L2 colon
SK-MEL-28 melanoma = system: SK-MEL-28 melanoma
UACC-257 melanoma = system: UACC-257 melanoma
SF-539 CNS = system: SF-539 CNS

Compound: CC[C@@]1(O)C(=O)OCc2c1cc1n(c2=O)Cc2cc3c(OC)cccc3nc2-1
- TGI (PC-3 prostate): > 100000 nM
- TGI (HCT-116 colon): > 100000 nM
- GI50 (NCI-H226 lung): 8.06 nM
- TGI (NCI-H226 lung): 78 nM and 445 nM
- GI50 (CCRF-CEM leukemia): 0.22 nM
- TGI (KM12 colon): 5860 nM
- TGI (RXF-631 renal): 1450 nM
- TGI (XF 498 CNS): 876 nM
- TGI (MDA-MB-231 breast): > 100000 nM
- GI50 (CAKI-1 renal): 5.03 nM and < 215 nM
- TGI (CAKI-1 renal): 238 nM
- TGI (NCI/ADR-RES ovarian): > 100000 nM
- TGI (A549 NSCLC): 7590 nM
- GI50 (SK-MEL-5 melanoma): 22.9 nM
- TGI (SK-MEL-5 melanoma): 311 nM
- TGI (RPMI-8226 leukemia): 1810 nM
- TGI (HCT-15 colon): > 60000 nM
- GI50 (SW-620 colon): 40.5 nM
- TGI (SW-620 colon): 5650 nM
- TGI (DLD-1 colon): 19300 nM
- GI50 (OVCAR-3 ovarian): 43.4 nM
- TGI (OVCAR-3 ovarian): 1210 nM
- GI50 (NCI-H460 lung): 0.801 nM and < 215 nM
- TGI (NCI-H460 lung): 1270 nM
- TGI (HT29 colon): > 43700 nM
- TGI (K-562 leukemia): 17800 nM
- TGI (BT-549 breast): > 39800 nM
- GI50 (SNB-75 CNS): 6.87 nM
- TGI (SNB-75 CNS): 2060 nM
- GI50 (NCI-H522 lung): 28 nM
- TGI (NCI-H522 lung): 2120 nM
- GI50 (DU-145 prostate): 2.66 nM
- TGI (MCF7 breast): > 100000 nM
- GI50 (MDA-N): > 100000 nM
- TGI (MDA-N): > 100000 nM
- GI50 (UACC-62 melanoma): 2.62 nM
- TGI (UACC-62 melanoma): 45.6 nM and 106 nM
- GI50 (SF-268 CNS): 3.5 nM
- TGI (SF-268 CNS): 1010 nM
- GI50 (UO-31 renal): 5.35 nM
- GI50 (NCI-H23 lung): 6.9 nM
- TGI (NCI-H23 lung): 77.5 nM and 505 nM
- TGI (COLO 205 colon): 5250 nM
- GI50 (IGROV1 ovarian): > 100000 nM
- TGI (IGROV1 ovarian): > 100000 nM
- TGI (LXFL 529 NSCLC): > 23100 nM
- GI50 (MOLT-4 leukemia): 0.417 nM
- GI50 (A498 renal): 3.01 nM
- GI50 (SN12C renal): 3.26 nM
- TGI (SN12C renal): 3400 nM
- GI50 (786-0 renal): 3.94 nM
- TGI (786-0 renal): 1130 nM
- GI50 (LOX IMVI melanoma): 4.44 nM
- TGI (LOX IMVI melanoma): 1140 nM
- TGI (MALME-3M melanoma): 1890 nM
- GI50 (U251 CNS): 8.58 nM
- TGI (M19-MEL melanoma): 643 nM
- GI50 (T-47D breast): > 100000 nM
- TGI (T-47D breast): > 100000 nM
- GI50 (OVCAR-5 ovarian): 38.6 nM
- TGI (OVCAR-5 ovarian): 7130 nM
- TGI (SR leukemia): 1350 nM
- GI50 (ACHN renal): 1.75 nM and < 215 nM
- GI50 (M14 melanoma): 3.23 nM
- TGI (M14 melanoma): 1610 nM
- TGI (OVCAR-4 ovarian): 11900 nM
- GI50 (SK-OV-3 ovarian): 9.55 nM
- TGI (SK-OV-3 ovarian): 4410 nM
- GI50 (HL-60(TB) leukemia): 3.21 nM
- GI50 (HOP-62 NSCLC): 0.532 nM and < 215 nM
- TGI (TK-10 renal): 50000 nM
- GI50 (RXF 393 renal): 0.0413 nM
- TGI (HS 578T breast): > 100000 nM
- TGI (HOP-18 NSCLC): > 100000 nM
- TGI (DMS 114 small cell lung): 280 nM
- GI50 (SF-295 CNS): 1.86 nM
- TGI (SF-295 CNS): 2650 nM
- GI50 (HOP-92 NSCLC): 0.0599 nM
- TGI (HOP-92 NSCLC): 685 nM
- TGI (EKVX NSCLC): 8560 nM
- GI50 (SNB-19 CNS): 6.42 nM
- TGI (SNB-19 CNS): > 31900 nM
- TGI (OVCAR-8 ovarian): 1900 nM
- TGI (SK-MEL-2 melanoma): 2600 nM
- TGI (DMS 273 small cell lung): 1140 nM
- TGI (KM20L2 colon): > 23600 nM
- GI50 (SK-MEL-28 melanoma): 1720 nM
- TGI (SK-MEL-28 melanoma): > 28100 nM
- GI50 (UACC-257 melanoma): 64.6 nM
- TGI (UACC-257 melanoma): 4250 nM
- GI50 (SF-539 CNS): 6.54 nM
- TGI (SF-539 CNS): 224 nM
